In patent US20030050233A1, “Peptide combination for the treatment of cancer” (DABUR ONCOLOGY PLC, priority 2001, published 2003):
Where a SMILES comes first, the peptide text is derived from it. [ ]: non-standard residue; d: D form. The star is where a group is joined. Ac5c = NC1(C(=O)O)CCCC1; Aib = CC(C)(N)C(=O)O; Butyryl = CCCC(=O)*

Columns and labels:
Format in all cases: cell-based
[1] = test system: cAMP in breast cancer cells (MF7); assay: cAMP levels by enzyme linked sandwich immunosorbent assay; details: 30 minutes, final peptide concentration 10^-9 M, Forskolin 1 uM
Description: Enzyme linked sandwich immunosorbent assay was carried out on breast cancer cells (MF7) to study the modulation in levels of cAMP upon treatment with the peptides and their combinations. The cells were cultured in sterile 6 well plates at a density of 0.5×10^6/well in DMEM supplemented with 10% FCS, and allowed to adhere overnight. The medium was changed to DMEM and the cells were treated with appropriate concentrations of the peptide and its combinations, as shown in Table-IV, for 30 minutes, such that in each case the final peptide concentration was 10^−9M.
The cells were coincubated with Forskolin at a concentration of 1 uM. The cells were scraped using a cell scraper and pelleted. The cell pellet was suspended in appropriate resuspension buffer (50 mM Tris, containing EDTA, 0.2 mM phenyl methyl sulfonyl fluoride (PMSF), 1 ug/ml pepstatin and 0.5 ug/ml leupeptin adjusted to pH 7.4). The cell extracts were transferred to microcentrifuge tubes and centrifuged for 5 minutes at 10000×g. cAMP standards ranging in concentrations from 200 units/ml to 0 units/ml were prepared immediately prior to the start of the assay. Fluorescein isothiocyanate (FITC) conjugated monoclonal antibody directed to cAMP was added to microtitre wells precoated with primary monoclonal antibody against cAMP. 50 ul of sample lysates, and cAMP standards were added in duplicates in the microtitre wells containing both the monoclonals to cAMP. The wells were incubated at room temperature for 2 hours. The microtitre wells were washed thrice with appropriate wash buffer (PBS 50 mM, with Tween 0.5%) and the appropriate dilution of anti FITC horse radish peroxidase conjugate was added and incubated for 30 minutes. The microtitre wells were washed thrice with the wash buffer and subsequently with distilled water. Tetra-methylbenzidine was added to each well and incubated in dark for 30 minutes at room temperature. The absorbance was measured in each well at dual wavelength of 450/595 nm within 30 minutes of the addition of stop solution and the amount of cAMP present in the cell samples calculated.

[2] = test system: tyrosine phosphatase in pancreatic cancer cells (MiaPaCa2); assay: Tyrosine phosphatase induction, colorimetric; details: 30 minutes, final peptide concentration 10^-9 M
Description: The quantitation of tyrosine phosphatase was carried out colorimetrically by using their synthetic biotin labeled tyrosine phosphorylated peptide substrates. The enzyme reaction was quenched by the addition of a specific inhibitor, and the phosphorylated and dephosphorylated substrate is immobilized by binding to the streptavidin coated microtitre plate. The fraction of the unmetabolized substrate is determined by its anti phospho tyrosine antibody directly conjugated to peroxidase.
The cells were cultured in sterile 6 well plates at a density of 0.5×10^6/ well in DMEM supplemented with 10% FCS, and allowed to adhere overnight. The medium was changed to DMEM. The cells were treated with appropriate concentrations peptide and their combinations shown in Table VI, for 30 minutes, such that in each case the final peptide concentration was 10^−9M.
The cells were lysed in appropriate lysis buffer (50 mM Tris, containing 0.2 mM PMSF, 1 ug/ml pepstatin and 0.5 ug/ml leupeptin adjusted to pH 7.4). The cell extracts were transferred to microcentrifuge tubes and centrifuged for 5 minutes at 10000×g.
The quantitation of phosphatase enzyme activity was performed with 30 ul of specific substrates and the reaction was quenched with the addition of 100 uM sodium orthvanadate. […] After 3 washings, 100 ul of the substrate POD was added to the wells, and the absorbance was read at 405 nm.

[3] = test system: Caspase-3 in PA-1 (Ovary) cells; assay: Caspase-3 induction, colorimetric DEVD-pNA, PA-1; details: 6 hours, each peptide 10^-8 M
Description: PA-1 (Ovary) cells were cultured in 25 cm^2 tissue culture flasks at 37° C. in a humidified incubator containing 5% CO2. When cultures reached pre-confluence individual peptides of the combination and different combinations of the peptides as shown in Table VII were added to different flasks such that the final concentration of each peptide in the flask was 10^−8 M. The untreated flasks served as controls. The cells were incubated with drug for 6 hours.
After 6 hours of incubation cells were collected by trypsin treatment followed by centrifugation at 2000 r.p.m. for 10 minutes. The supernatant was gently removed and discarded and Lysis Buffer was added to the cell pellet (25 ul of lysis buffer per 1×10^4 cells I a 15 ml conical tube) and incubated on ice for 10 minutes and centrifuged at 10,000-×g for 1 minute. 50 ul of supernatant(cell lysate) was transferred to the wells of a 96-well plate. 2×Reaction buffer was prepared by adding 10 ul of fresh DTT stock per 1 ml of 2×Reaction Buffer. […] Following incubation the plate was read on a microplate reader at 405 nm-wavelength light the level of caspase enzymatic activity in the cell lysate was directly proportional to the color reaction. The induction of caspase activity by the subcombinations was calculated as a percentage of control using the formula [(Sample OD/Control OD)−1]*100.

[4] = test system: VEGF secreted by human breast adenocarcinoma cells (MDA.MB.453); assay: VEGF secretion ELISA; details: 4 hours, each peptide 10^-8 M
Description: Human breast adenocarcinoma cells (MDA.MB.453) were plated at the density of 8-10×10^5 cells per 2 ml in a six well plate. After an overnight incubation of cells at 37° C., individual peptides and different combinations of the peptides as shown in Table VIII were added to different wells such that the final concentration of each peptide was 10^−8 M. The untreated wells served as controls. The plates were incubated for 4 hours at 37° C. The medium was collected from all the wells (control and treated) and spun down at 2000 r.p.m to remove the cellular material. The supernatant was collected and used for ELISA (Quantikine human VEGF, R&D Systems). The assay employs the quantitative sandwich enzyme immunoassay technique. A monoclonal antibody specific for VEGF has been pre-coated onto a microplate. Standards and samples were pipeted into the wells and VEGF present was bound by the immobilized antibody. After washing away the unbound substances, an enzyme-linked polyclonal antibody specific for VEGF was added to the wells. Following a wash to remove any unbound antibody-enzyme reagent, a substrate solution was added to the wells and color developed in proportion to the amount of VEGF bound in the initial step. The optical density of each well was determined within 30 minutes using a microplate reader set to 450 nm and reference wavelength at 540 nm.

Compound | Camp (% of Control) [1] [%] | % Induction of Tyrosine phosphatase [2] [%] | % INDUCTION of Caspase-3 [3] [%] | % INHIBITION of VEGF secretion [4] [%]
CSCC[C@H](NC(=O)[C@@H](N)CC(C)C)C(=O)N[C@@H](Cc1ccc(O)cc1)C(=O)N1CCC[C@H]1C(=O)N[C@H](C(=O)N[C@@H](Cc1ccc(O)cc1)C(=O)N[C@@H](CC(C)C)C(=O)N[C@@H](CCCCN)C(=O)O)[C@@H](C)O [SEQ ID NO:1, Leu-Met-Tyr-Pro-Thr-Tyr-Leu-Lys-OH] (H-LMYPTYLK-OH; N-terminus assumed) | 30 | – | – | –
C[C@@H](O)[C@H](NC(=O)[C@H]1NC(=O)C2(CCCC2)NC(=O)[C@H](CCCN)NC(=O)[C@@H](Cc2c[nH]c3ccccc23)NC(=O)[C@H](Cc2ccc(O)cc2)NC(=O)[C@@H](NC(=O)[C@H](N)Cc2ccccc2)CSSC1(C)C)C(N)=O [SEQ ID NO:4, D-Phe-Cys-Tyr-D-Trp-Om-Ac5c -Pen-Thr-NH2] | 15 | 10 | 12.4 | 12.4 ± 2.3
CC(C)C[C@H](NC(=O)[C@@H](Cc1c[nH]c2ccccc12)NC(=O)[C@H](Cc1ccccc1)NC(=O)[C@@H](Cc1c[nH]c2ccccc12)NC(=O)[C@H](CCC(N)=O)NC(=O)[C@@H](Cc1ccccc1)NC(=O)[C@@H]1CCCN1C(=O)[C@H](CCCCN)NC(=O)[C@@H]1CCCN1C(=O)[C@H](N)CCCNC(=N)N)C(=O)NC1(C(N)=O)CCCC1 [SEQ ID NO:3, D-Arg-Pro-Lys-Pro-D-Phe-Gln-D-Trp-Phe-D-Trp-Leu-Ac5c-NH2] (H-[dR]PKP[dF]Q[dW]F[dW]L[Ac5c]-NH2; N-terminus assumed) | 14 | 12 | 19.5 | 17.5 ± 1.9
CCCC(=O)N[C@H](Cc1ccccc1)C(=O)N[C@@H](CCC(N)=O)C(=O)N[C@@H](Cc1c[nH]c2ccccc12)C(=O)N[C@@H](C)C(=O)N[C@H](C(=O)NC(C)(C)C(=O)N[C@@H](Cc1c[nH]cn1)C(=O)N[C@@H](CC(C)C)C(N)=O)C(C)C [SEQ ID NO:2, Butanoyl-D-Phe-Gln-Trp-Ala-Val-Aib-His-Leu-NH2] (Butyryl-[dF]QWAV[Aib]HL-NH2) | 18 | – | – | –
